Assay results: US20150133388A1, “ACETYLATED CRYSTALLIN POLYPEPTIDES AND MIMETICS THEREOF AS THERAPEUTIC AGENTS” (Case Western Reserve University, priority 2012, published 2015)
No end group written: not given here.

Assays:
lens epithelial cells [1] = assay: Lens epithelial cell apoptosis in selenite cataract (in situ TUNEL); format: in vivo, rat; conditions: multiple 10 μg injections
Procedure: (§1) Neonatal Sprague-Dawley rat pups (12 days old) were used for these experiments. The pups in the experimental groups received a single subcutaneous injection of sodium selenite (4 mg/Kg body weight) on day 12. Peptides diluted from a stock in sterile water (dissolved by adding 2 μl of 10 N NaOH to a 1.0 ml stock) were injected intraperitoneally (at 2.5, 5, or 10 μg/animal) 6 h prior to selenite injection (single injection). When multiple injections were performed, one pre-selenite injection was administered, as above, followed by four additional injections on four consecutive days after the sodium selenite injection. One group served as the control (no treatment) and another as the selenite control (no peptide injection). The lenses were examined on day 17 (when the pups had opened their eyes) using a slit lamp microscope (after dilating the pupil through topical application of tropicamide) and photographed. For hematoxylin and eosin (H & E) and TUNEL staining, eyes were fixed immediately after enucleation in a 10% buffered formalin solution overnight.

γ-crystallin (GC) = assay: Chaperone assay, client protein γ-crystallin; format: biochemical; conditions: peptide:γ-crystallin 1:1 (w/w)
Procedure: (§2) Chaperone assays were performed as previously described. The ratios of the peptides: client proteins (w/w) were as follows: citrate synthase, 1:2.5; insulin, 1:10; βL-crystallin, 1:1.5; and γ-crystallin, 1:1. The scrambled αA-crystallin peptide was tested in certain assays at peptide: client protein ratios as follows: citrate synthase, 1:1.25, insulin, 1:5 to determine peptide specificity.

[2] = system: Human lens epithelial cells (HLE); assay: Hyperthermia-induced apoptosis in HLE cells (Hoechst stain); format: cell-based; conditions: 43° C. 1 h; for rate of apoptosis after peptide pretreatment: 4 μg/ml in BP 4 h, without peptide nearly 40%
Procedure: (§3) Human lens epithelial cells (HLE) were isolated from the lens of a donor and cultured in DMEM supplemented with 10% FBS as previously described for mouse lens epithelial cells. Cells between passages 5 and 6 were used for the experiments. Chinese hamster ovary (CHO) cells were cultured in Ham's F12 medium. The α-crystallin peptides were mixed with a cationic lipid, BIOPORTER (BP), according to the manufacturer's instructions (Polyplus transfection reagent, Illkirch, France). When the cultures reached 70-80% confluence, the cells were treated with BP either alone or with the peptides in serumfree medium and incubated for 4 h at 37° C. in a humidified 5% CO2 atmosphere. The cells were then washed with PBS and incubated at 43° C. for 1 h (thermal stress), followed by incubation at 37° C. for 16 h for recovery. The percentage of apoptotic cells was determined by staining the cells with Hoechst. Cells incubated at 37° C. without thermal stress were used as controls.

[3] = system: selenite-induced cataracts; assay: Selenite-induced cataract in rat pups (slit lamp); format: in vivo
Procedure: as §1

caspase-9 = assay: Caspase-9 activity in thermally stressed CHO cells; format: cell-based, Chinese hamster; conditions: 4 μg/ml
Procedure: (§4) Cells were lysed in cell lysis buffer (Cell signaling), and lenses were homogenized in 50 mM Tris-buffered saline. Both buffers contained a protease inhibitor cocktail (1:100 dilution). An equal volume of a fluorogenic substrate solution[2× reaction buffer: 10 mM DTT and 50 μM Ac-DEVD-AFC (for caspase-3) or Ac-LEHDAFC (for caspase-9)] was added to each lysate. The lysates were then incubated for 2 h at 37° C. in the dark. The samples were analyzed with a […] spectrofluorometer (HORIBA Scientific, Edison, N.J.) at excitation/emission wavelengths 400/505 nm.

citrate synthase (CS) = target: T1, citrate synthase (CS) (Sus scrofa, UniProt P00889); assay: Chaperone assay, client protein citrate synthase; format: biochemical
T1 construct: purchased Sigma-Aldrich Chemical Co. (St. Louis, Mo.)
T1 sequence (P00889 28-464): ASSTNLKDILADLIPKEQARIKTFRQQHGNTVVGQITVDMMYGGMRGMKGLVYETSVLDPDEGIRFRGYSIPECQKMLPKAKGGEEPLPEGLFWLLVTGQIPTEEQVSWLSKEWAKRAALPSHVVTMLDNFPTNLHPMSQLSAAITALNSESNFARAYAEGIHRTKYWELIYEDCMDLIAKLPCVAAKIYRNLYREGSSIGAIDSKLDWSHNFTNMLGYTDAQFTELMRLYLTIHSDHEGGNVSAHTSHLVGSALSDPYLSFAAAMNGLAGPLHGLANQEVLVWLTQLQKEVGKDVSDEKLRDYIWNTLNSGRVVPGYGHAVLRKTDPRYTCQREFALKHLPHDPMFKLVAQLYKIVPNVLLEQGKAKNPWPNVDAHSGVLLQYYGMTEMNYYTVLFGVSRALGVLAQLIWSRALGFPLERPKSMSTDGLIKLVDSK
Procedure: as §2

caspase-3 = assay: Caspase-3 activity in thermally stressed CHO cells; format: cell-based, Chinese hamster; conditions: 4 μg/ml
Procedure: as §4

lens protein aggregation = assay: Histology (H&E) of lens protein aggregation in selenite cataract; format: in vivo, rat; conditions: multiple injections 10 μg
Procedure: as §1

CHO cells = assay: Hyperthermia-induced apoptosis in CHO cells (Hoechst stain); format: cell-based, Chinese hamster; conditions: for inhibition of apoptosis: untreated rate ~28%
Procedure: as §3

insulin (IN) = assay: Chaperone assay, client protein insulin; format: biochemical
Procedure: as §2

βL-crystallin (BLC) = assay: Chaperone assay, client protein βL-crystallin; format: biochemical; conditions: peptide:βL-crystallin 1:1.5 (w/w)
Procedure: as §2

lens epithelial cells [4] = assay: Calcimycin-induced apoptosis in organ-cultured mouse lenses (TUNEL); format: cell-based; conditions: 5 μM calcimycin
Procedure: The animal experiments conformed to the ARVO Statement for the Use of Animals in Ophthalmic and Vision Research and were approved by the CWRU's Animal Care and Use Committee. Lenses were dissected from the eyes of ˜3-month-old C57B1/6 mice and maintained in artificial aqueous humor (AAH) (113 mM NaCl, 4.5 mM KCl, 1 mM MgCl2, 1.5 mM CaCl2, 6 mM D-glucose, 10 mM HEPES, 20 mM NaHCO3, and 1:1,000 penicillin/streptomycin, pH 7.3). Lenses that developed opacification within 24 h were discarded. Native and acetyl αA- and αB crystallin peptides were added to the culture medium at a concentration of 50 μg/3.0 ml, followed by incubation of the lenses for 16 h. The medium was replaced with fresh medium containing 5 μM calcimycin, and the lenses were incubated for an additional 6 h. After this incubation period, the lenses were thoroughly washed with PBS, fixed in 1% buffered formalin overnight, and embedded in paraffin. Microtome sections (5 μm) were subsequently rehydrated and subjected to antigen retrieval via microwave irradiation in 10 mM citrate buffer (pH 6.0). Apoptosis was measured using the In situ Cell Death Detection Kit (Roche, Indianapolis, Ind.) according to the manufacturer's instructions. The sections were counterstained with DAPI to visualize nuclei.

[5] = target: the above four client proteins (citrate synthase, insulin, βL-crystallin, γ-crystallin); assay: cell-based or functional assay
[6] = multiple i.p. injections 5 μg/animal
[7] = multiple i.p. injections 10 μg/animal
[8] = single i.p. injection 2.5 μg/animal 6 h prior to selenite
[9] = single i.p. injection 10 μg/animal 6 h prior to selenite
[10] = 1 μg/ml peptide in BIOPORTER 4 h, 43° C. 1 h
[11] = 2 μg/ml peptide in BIOPORTER 4 h, 43° C. 1 h
[12] = 4 μg/ml peptide in BIOPORTER 4 h, 43° C. 1 h

“69DK (acetyl) FVIFLDVKHFSPEDLTVK88 (DK(Ac)FVIFLDVKHFSPEDLTVK; listed as Homo sapiens) [αA-acetyl peptide]” was tested, and the “inhibition of lens epithelial cell apoptosis (TUNEL)” value (“inhibition … (TUNEL)” for short) (lens epithelial cells [1]) was “inhibited apoptosis”, the “chaperone function compared with the native peptide” value (γ-crystallin (GC)) was “significantly better” and the “rate of apoptosis after peptide pretreatment” value (“rate of apoptosis” for short) [2] was 25%. The “inhibition of cataract development” value ([3]; multiple i.p. injections 2.5 μg/animal) was “partially inhibited cataract development”, the “inhibition of cataract development” value [3, 6] was “strongly inhibited cataracts” and the “inhibition of cataract development” value [3, 7] was “entirely inhibited cataracts”. For the same molecule, the “inhibition of cataract development” value [3, 8] was “ineffective”, the “inhibition of cataract development” value ([3]; single i.p. injection 5 μg/animal 6 h prior to selenite) was “more effective than the native peptide” and the “inhibition of cataract development” value [3, 9] was “more effective than the native peptide”. For the same molecule, the “inhibition of caspase-9 activity” value (caspase-9) was 53%, the “chaperone function compared with the native peptide” value (citrate synthase (CS); peptide:citrate synthase 1:2.5 (w/w)) was “significantly better” and the “inhibition of caspase-3 activity” value (caspase-3) was 90%. The “inhibition of protein aggregation in the lens center (H&E)” value (“inhibition of protein aggregation” below) (lens protein aggregation) was “inhibited”, the “more effective than the native peptide in inhibiting apoptosis” value (CHO cells; at the 2 and 4 μg concentrations) was “at least 5%” and the “chaperone function compared with the native peptide” value (insulin (IN); peptide:insulin 1:10 (w/w)) was “significantly better”. The “chaperone function compared with the native peptide” value (βL-crystallin (BLC)) was “not different”.

“69DKFVIFLDVKHFSPEDLTVK88 (listed as Homo sapiens) [αA-native peptide]” was tested, and the “inhibition … (TUNEL)” value (lens epithelial cells [1]) was “inhibited apoptosis”, the “rate of apoptosis” value [2] was 22% and the “inhibition of cataract development” value [3, 6] was “strongly inhibited cataracts”. For the same molecule, the “inhibition of cataract development” value [3, 7] was “entirely inhibited cataracts”, the “inhibition of cataract development” value [3, 8] was “ineffective” and the “inhibition of caspase-9 activity” value (caspase-9) was 51%. For the same molecule, the “inhibition of caspase-3 activity” value (caspase-3) was 80%, the “inhibition of protein aggregation” value (lens protein aggregation) was “inhibited” and the inhibition of apoptosis (CHO cells; [10]) was 12%. For the same molecule, the inhibition of apoptosis (CHO cells; [11]) was 14% and the inhibition of apoptosis (CHO cells; [12]) was 17%.

For “73DRFSVNLDVKHFSPEELKVKV93 (listed as Homo sapiens) [αB-native peptide]”, the “inhibition … (TUNEL)” value (lens epithelial cells [1]) was “inhibited apoptosis”, the “rate of apoptosis” value [2] was 18% and the “inhibition of cataract development” value [3, 7] was “inhibited cataract development”. For the same molecule, the “inhibition of cataract development” value [3, 8] was “ineffective”, the “inhibition of cataract development” value [3, 9] was “strongly inhibited cataract development” and the “inhibition of caspase-9 activity” value (caspase-9) was 51%. The “inhibition of caspase-3 activity” value (caspase-3) was 80%, the “inhibition of protein aggregation” value (lens protein aggregation) was “inhibited” and the inhibition of apoptosis (CHO cells; [10]) was 8%. It also gave an inhibition of apoptosis (CHO cells; [11]) of 12% and an inhibition of apoptosis (CHO cells; [12]) of 17%.

For “DFVIDSPFKLVDLEKVHFTK (listed as Homo sapiens) [αA-scrambled peptide]”, the “protection from calcimycin-induced apoptosis (in words)” value (lens epithelial cells [4]) was “did not protect the cells”, the “inhibition of apoptosis (in words)” value ([2]; 4 μg/ml) was “did not inhibit apoptosis” and the “inhibition of cataract development” value [3, 7] was “entirely ineffective”. The chaperone function (citrate synthase (CS); peptide:CS 1:1.25, two times higher concentration than native and acetyl peptides) was “did not function as a chaperone”, the “inhibition of apoptosis (in words)” value (CHO cells; 4 μg/ml, 43° C. 1 h) was “did not inhibit apoptosis” and the chaperone function (insulin (IN); peptide:IN 1:5, two times higher concentration than native and acetyl peptides) was “did not function as a chaperone”.

DRFSVNLDVKHFSPEELKVK(Ac)V [αB-crystallin acetyl peptide 73…(acetyl)V93] gave a chaperone function, against the native αB peptide (percent weaker) [5] of 10 to 30%.
